ChEMBL document CHEMBL1201862, “PubChem BioAssay data set” (2004)
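Where inhibition never reached the appropriate level, the endpoint shown equals the highest concentration tested. Otherwise, values were interpolated linearly from a five-concentration, 48-hour dose response in 96-well plates. Here, GI50 denotes the concentration required for 50% inhibition of growth.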 Calls of active or inactive are those of the source. No stated cut-off is given here; in the data, active = GI50 up to about 1.1 µM and inactive = higher.

What was measured:
Assay in all cases: DTP human tumour cell line panel, 48 h
SNB-78 = system: SNB-78
U-251 = system: U-251
NCI-H522 = system: NCI-H522
XF498 = system: XF498
HCC 2998 = system: HCC 2998
NCI-H23 = system: NCI-H23
OVCAR-8 = system: OVCAR-8
Malme-3M = system: Malme-3M
HL-60 = system: HL-60
SK-MEL-28 = system: SK-MEL-28
RXF 631 = system: RXF 631
NCI-H226 = system: NCI-H226
UACC-257 = system: UACC-257
RXF 393 = system: RXF 393
EKVX = system: EKVX
TK-10 = system: TK-10
SK-MEL-2 = system: SK-MEL-2
SK-OV-3 = system: SK-OV-3
SNB-75 = system: SNB-75
NCI-H460 = system: NCI-H460
M14 = system: M14
OVCAR-4 = system: OVCAR-4
CAKI-1 = system: CAKI-1
HOP-62 = system: HOP-62
SF-268 = system: SF-268
COLO 205 = system: COLO 205
UO-31 = system: UO-31
SW-620 = system: SW-620
DLD-1 = system: DLD-1
SNB-19 = system: SNB-19
SF-539 = system: SF-539
HOP-92 = system: HOP-92
SK-MEL-5 = system: SK-MEL-5
OVCAR-5 = system: OVCAR-5
LOX IMVI = system: LOX IMVI
LXFL 529 = system: LXFL 529
HCT-116 = system: HCT-116
HT-29 = system: HT-29
ACHN = system: ACHN
SN12C = system: SN12C
IGROV-1 = system: IGROV-1
KM-20L2 = system: KM-20L2
UACC-62 = system: UACC-62
A498 = system: A498
SR = system: SR
DMS-273 = system: DMS-273
HOP-18 = system: HOP-18
CCRF-CEM = system: CCRF-CEM
HCT-15 = system: HCT-15
786-0 = system: 786-0
K562 = system: K562
A549 = system: A549
SF-295 = system: SF-295
RPMI-8226 = system: RPMI-8226
KM12 = system: KM12
MOLT-4 = system: MOLT-4
OVCAR-3 = system: OVCAR-3
M19-MEL = system: M19-MEL
DMS-114 = system: DMS-114
T47D = system: T47D
MDA-N = system: MDA-N
MCF7 = system: MCF7
NCI/ADR-RES = system: NCI/ADR-RES
Hs-578T = system: Hs-578T
MDA-MB-231 = system: MDA-MB-231
PC-3 = system: PC-3
DU-145 = system: DU-145
MDA-MB-435 = system: MDA-MB-435

Cc1ccc2nc(NC(=O)/C(=N\NC(=S)NN)C3C(=O)NC(=S)NC3=O)sc2c1
GI50 (SNB-78): > 100 µM (inactive) | GI50 (U-251): > 100 µM (inactive) | GI50 (NCI-H522): > 100 µM (inactive) | GI50 (XF498): > 100 µM (inactive) | GI50 (HCC 2998): > 100 µM (inactive) | GI50 (NCI-H23): > 100 µM (inactive) | GI50 (OVCAR-8): > 100 µM (inactive) | GI50 (Malme-3M): > 100 µM (inactive) | GI50 (HL-60): > 100 µM (inactive) | GI50 (SK-MEL-28): > 100 µM (inactive) | GI50 (RXF 631): > 100 µM (inactive) | GI50 (NCI-H226): > 100 µM (inactive) | GI50 (UACC-257): > 100 µM (inactive) | GI50 (RXF 393): > 100 µM (inactive) | GI50 (EKVX): > 100 µM (inactive) | GI50 (TK-10): > 100 µM (inactive) | GI50 (SK-MEL-2): > 100 µM (inactive) | GI50 (SK-OV-3): > 100 µM (inactive) | GI50 (SNB-75): > 100 µM (inactive) | GI50 (NCI-H460): > 100 µM (inactive) | GI50 (M14): > 100 µM (inactive) | GI50 (OVCAR-4): > 100 µM (inactive) | GI50 (CAKI-1): > 100 µM (inactive) | GI50 (HOP-62): > 100 µM (inactive) | GI50 (SF-268): > 100 µM (inactive) | GI50 (COLO 205): > 100 µM (inactive) | GI50 (UO-31): > 100 µM (inactive) | GI50 (SW-620): > 100 µM (inactive) | GI50 (DLD-1): > 100 µM (inactive) | GI50 (SNB-19): > 100 µM (inactive) | GI50 (SF-539): > 100 µM (inactive) | GI50 (HOP-92): > 100 µM (inactive) | GI50 (SK-MEL-5): > 100 µM (inactive) | GI50 (OVCAR-5): > 100 µM (inactive) | GI50 (LOX IMVI): > 100 µM (inactive) | GI50 (LXFL 529): > 100 µM (inactive) | GI50 (HCT-116): > 100 µM (inactive) | GI50 (HT-29): > 100 µM (inactive) | GI50 (ACHN): > 100 µM (inactive) | GI50 (SN12C): > 100 µM (inactive) | GI50 (IGROV-1): > 100 µM (inactive) | GI50 (KM-20L2): > 100 µM (inactive) | GI50 (UACC-62): > 100 µM (inactive) | GI50 (A498): > 100 µM (inactive) | GI50 (SR): > 100 µM (inactive) | GI50 (DMS-273): > 100 µM (inactive) | GI50 (HOP-18): 80 µM (inactive) | GI50 (CCRF-CEM): > 100 µM (inactive) | GI50 (HCT-15): > 100 µM | GI50 (786-0): > 100 µM (inactive) | GI50 (K562): > 100 µM (inactive) | GI50 (A549): > 100 µM (inactive) | GI50 (SF-295): > 100 µM (inactive) | GI50 (RPMI-8226): > 100 µM (inactive) | GI50 (KM12): > 100 µM (inactive) | GI50 (MOLT-4): > 100 µM (inactive)

O=C1COc2cc3c(cc2N1)SCC(=O)N3
GI50 (SNB-78): > 100 µM (inactive) | GI50 (NCI-H522): > 100 µM (inactive) | GI50 (XF498): > 100 µM (inactive) | GI50 (HCC 2998): > 100 µM (inactive) | GI50 (NCI-H23): > 100 µM (inactive) | GI50 (OVCAR-8): > 100 µM (inactive) | GI50 (Malme-3M): > 100 µM (inactive) | GI50 (HL-60): > 100 µM (inactive) | GI50 (OVCAR-3): > 100 µM (inactive) | GI50 (SK-MEL-28): > 100 µM (inactive) | GI50 (RXF 631): > 100 µM (inactive) | GI50 (NCI-H226): > 100 µM (inactive) | GI50 (UACC-257): > 100 µM (inactive) | GI50 (EKVX): 6.41 µM (inactive) | GI50 (TK-10): > 100 µM (inactive) | GI50 (SK-MEL-2): > 100 µM (inactive) | GI50 (SK-OV-3): > 100 µM (inactive) | GI50 (M19-MEL): > 100 µM (inactive) | GI50 (SNB-75): > 100 µM (inactive) | GI50 (DMS-114): > 100 µM (inactive) | GI50 (M14): > 100 µM (inactive) | GI50 (OVCAR-4): > 100 µM (inactive) | GI50 (CAKI-1): > 100 µM (inactive) | GI50 (HOP-62): > 100 µM (inactive) | GI50 (SF-268): > 100 µM (inactive) | GI50 (COLO 205): > 100 µM (inactive) | GI50 (UO-31): > 100 µM (inactive) | GI50 (SW-620): > 100 µM (inactive) | GI50 (DLD-1): > 100 µM (inactive) | GI50 (SNB-19): > 100 µM (inactive) | GI50 (SF-539): > 100 µM (inactive) | GI50 (HOP-92): > 100 µM (inactive) | GI50 (SK-MEL-5): > 100 µM (inactive) | GI50 (LXFL 529): > 100 µM (inactive) | GI50 (HCT-116): > 100 µM (inactive) | GI50 (HT-29): > 100 µM (inactive) | GI50 (IGROV-1): > 100 µM (inactive) | GI50 (UACC-62): > 100 µM (inactive) | GI50 (SR): > 100 µM (inactive) | GI50 (DMS-273): > 100 µM (inactive) | GI50 (HOP-18): > 100 µM (inactive) | GI50 (CCRF-CEM): > 100 µM (inactive) | GI50 (786-0): > 100 µM (inactive) | GI50 (K562): > 100 µM (inactive) | GI50 (A549): > 100 µM (inactive) | GI50 (SF-295): > 100 µM (inactive) | GI50 (RPMI-8226): > 100 µM (inactive) | GI50 (KM12): > 100 µM (inactive) | GI50 (MOLT-4): > 100 µM (inactive)

Cc1nc2c(n1-c1ccc(Br)cc1)C(=O)c1ccccc1C2=O
GI50 (SNB-78): 14.6 µM (inactive) | GI50 (U-251): 3.54 µM (inactive) | GI50 (NCI-H522): 10.4 µM (inactive) | GI50 (HCC 2998): 14 µM (inactive) | GI50 (NCI-H23): 34 µM (inactive) | GI50 (OVCAR-8): 6.52 µM (inactive) | GI50 (Malme-3M): 9.95 µM (inactive) | GI50 (HL-60): 0.783 µM (active) | GI50 (OVCAR-3): 12 µM (inactive) | GI50 (SK-MEL-28): 12.9 µM (inactive) | GI50 (T47D): 19.3 µM (inactive) | GI50 (RXF 631): 2.06 µM (inactive) | GI50 (NCI-H226): 51.6 µM (inactive) | GI50 (UACC-257): 19.5 µM (inactive) | GI50 (RXF 393): 14.8 µM (inactive) | GI50 (EKVX): > 54.6 µM (inactive) | GI50 (TK-10): 34.4 µM (inactive) | GI50 (SK-MEL-2): 66.4 µM (inactive) | GI50 (SK-OV-3): 42.2 µM (inactive) | GI50 (SNB-75): 20 µM (inactive) | GI50 (NCI-H460): 1.44 µM (inactive) | GI50 (DMS-114): 26 µM (inactive) | GI50 (MDA-N): 6.84 µM (inactive) | GI50 (M14): 17.7 µM (inactive) | GI50 (MCF7): 3.62 µM (inactive) | GI50 (OVCAR-4): 14.8 µM (inactive) | GI50 (CAKI-1): 12.5 µM (inactive) | GI50 (HOP-62): 18.3 µM (inactive) | GI50 (SF-268): 5.21 µM (inactive) | GI50 (COLO 205): 4.38 µM (inactive) | GI50 (UO-31): 7.76 µM (inactive) | GI50 (SW-620): 7.74 µM (inactive) | GI50 (DLD-1): 7.59 µM (inactive) | GI50 (SNB-19): 3.6 µM (inactive) | GI50 (SF-539): 7.66 µM (inactive) | GI50 (HOP-92): 27.2 µM (inactive) | GI50 (SK-MEL-5): 12.6 µM (inactive) | GI50 (NCI/ADR-RES): 5.78 µM (inactive) | GI50 (OVCAR-5): > 100 µM (inactive) | GI50 (LOX IMVI): 2.62 µM (inactive) | GI50 (Hs-578T): 7.78 µM (inactive) | GI50 (HCT-116): 1.63 µM (inactive) | GI50 (HT-29): 6.68 µM (inactive) | GI50 (ACHN): 9.06 µM (inactive) | GI50 (SN12C): 4.76 µM (inactive) | GI50 (IGROV-1): 21.2 µM (inactive) | GI50 (UACC-62): 2.82 µM (inactive) | GI50 (A498): > 49.8 µM (inactive) | GI50 (SR): 1.07 µM (active) | GI50 (DMS-273): 4.49 µM (inactive) | GI50 (CCRF-CEM): 3.16 µM (inactive) | GI50 (HCT-15): 1.04 µM | GI50 (786-0): 5.16 µM (inactive) | GI50 (K562): 1.33 µM (inactive) | GI50 (A549): 6.93 µM (inactive) | GI50 (SF-295): 5.45 µM (inactive) | GI50 (RPMI-8226): 1.43 µM (inactive) | GI50 (MDA-MB-231): 0.406 µM (active) | GI50 (KM12): 6.5 µM (inactive) | GI50 (PC-3): 1.26 µM (inactive) | GI50 (DU-145): 58.2 µM (inactive) | GI50 (MDA-MB-435): 6.73 µM (inactive) | GI50 (MOLT-4): 0.989 µM (active)
